Source: PubChem BioAssay AID248 (DTP/NCI, 2004)
Several values for one entry are separate records, joined by “and”; a condition that tells them apart may be missing. Equal values may be shown once. Toxic doses and inconclusive results are not listed. Cut-off read from the data, not from the text of the source: active = T/C of 150% or more; inactive = T/C below 125%.

Tested on: L1210 leukemia ip in BDF1 mice, survival T/C
Test: NCI In Vivo Anticancer Drug Screen. Data for tumor model L1210 Leukemia (intraperitoneal) in B6D2F1 (BDF1) mice
Conditions: endpoint: mean survival time, higher = longer survival
Outline: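 Value reflects the ratio of survival in compound-treated mice to survival in vehicle-treated controls, with both groups carrying the same transplanted tumor.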

[1] = dose: 100.0 mg/kg/injection, schedule: Q01DX009 (ip), vehicle: saline with Tween-80
[2] = dose: 100.0 mg/kg/injection, schedule: Q01DX009 (ip), vehicle: Klucel (hydroxypropylcellulose) (HPC)
[3] = dose: 200.0 mg/kg/injection, schedule: Q01DX009 (ip), vehicle: Klucel (hydroxypropylcellulose) (HPC)
[4] = dose: 400.0 mg/kg/injection, schedule: Q01DX009 (ip), vehicle: Klucel (hydroxypropylcellulose) (HPC)
[5] = dose: 100.0 mg/kg/injection, schedule: Q01DX001 (ip), vehicle: saline with Tween-80
[6] = dose: 200.0 mg/kg/injection, schedule: Q01DX001 (ip), vehicle: saline with Tween-80
[7] = dose: 400.0 mg/kg/injection, schedule: Q01DX001 (ip), vehicle: saline with Tween-80
[8] = dose: 100.0 mg/kg/injection, schedule: Q04DX003 (ip), vehicle: Klucel (hydroxypropylcellulose) (HPC)
[9] = dose: 200.0 mg/kg/injection, schedule: Q04DX003 (ip), vehicle: Klucel (hydroxypropylcellulose) (HPC)
[10] = dose: 400.0 mg/kg/injection, schedule: Q04DX003 (ip), vehicle: Klucel (hydroxypropylcellulose) (HPC)
[11] = dose: 100.0 mg/kg/injection, schedule: Q01DX001 (ip), vehicle: carboxymethylcellulose (CMC)
[12] = dose: 200.0 mg/kg/injection, schedule: Q01DX001 (ip), vehicle: carboxymethylcellulose (CMC)
[13] = dose: 400.0 mg/kg/injection, schedule: Q01DX001 (ip), vehicle: carboxymethylcellulose (CMC)
[14] = dose: 75.0 mg/kg/injection, schedule: Q01DX001 (ip), vehicle: saline

Measured: T/C

CC(=O)Nc1cc([N+](=O)[O-])cc(C)c1O
inactive: [1] 97 % of control | dose: 200.0 mg/kg/injection, schedule: Q01DX009 (ip), vehicle: saline with Tween-80 89 % of control

COc1ccc(OC)c(NC(=O)Nc2ccc(C(=O)O)cc2)c1
inactive: [2] 109 % of control | [3] 96 % of control | [4] 96 % of control

CC[n+]1ccc(Nc2ccc(NC(=O)c3ccc([N+](=O)[O-])cc3)cc2)cc1
inactive: dose: 12.5 mg/kg/injection, schedule: Q01DX009 (ip), vehicle: saline with Tween-80 100 % of control | dose: 25.0 mg/kg/injection, schedule: Q01DX009 (ip), vehicle: saline with Tween-80 91 % of control | dose: 50.0 mg/kg/injection, schedule: Q01DX009 (ip), vehicle: saline with Tween-80 88 % of control | [5] 100 % of control | [1] 92 % of control | [6] 110 % of control | [7] 98 % of control

CC(C)=NNC(=O)CNc1ccc(Cl)c(C(F)(F)F)c1
inactive: dose: 100.0 mg/kg/injection, schedule: Q04DX002 (ip), vehicle: Klucel (hydroxypropylcellulose) (HPC) 97 % of control | dose: 200.0 mg/kg/injection, schedule: Q04DX002 (ip), vehicle: Klucel (hydroxypropylcellulose) (HPC) 104 % of control | dose: 400.0 mg/kg/injection, schedule: Q04DX002 (ip), vehicle: Klucel (hydroxypropylcellulose) (HPC) 111 % of control

Cc1c(N=O)c(=O)n(-c2ccccc2)n1C
inactive: [2] 94 % of control | [8] 95 % of control | [3] 97 % of control | [9] 95 % of control | [4] 110 % of control | [10] 98 % of control

CCc1ccc(NS(=O)(=O)c2ccc(OC)cc2)cc1
inactive: [2] 102 % of control | [3] 100 % of control | [4] 109 % of control

COc1c2ccoc2nc2ccc3c(c12)C=CC(C)(C)O3
inactive: dose: 50.0 mg/kg/injection, schedule: Q01DX001 (ip), vehicle: carboxymethylcellulose (CMC) 98 % of control | [11] 104 % of control | [12] 104 % of control | [13] 98 % of control

Ic1sc(I)c(I)c1I
inactive: [11] 95 % of control | [12] 93 % of control | [13] 104 % of control

C=CN(C=C)P(=O)(C1C(=O)C(C(=O)OCC)C(c2ccc(OC(C)=O)cc2)C(C(=O)OCC)C1=O)C1C(=O)C(C(=O)OCC)C(c2ccc(OC(C)=O)cc2)C(C(=O)OCC)C1=O (stereo not drawn)
inactive: dose: 100.0 mg/kg/injection, schedule: Q04DX003 (ip), vehicle: saline with Tween-80 97 % of control | dose: 200.0 mg/kg/injection, schedule: Q04DX003 (ip), vehicle: saline with Tween-80 96 % of control | dose: 400.0 mg/kg/injection, schedule: Q04DX003 (ip), vehicle: saline with Tween-80 100 % of control

O=C1c2c(ccc3ccccc23)CCC1Br (stereo not drawn)
inactive: [8] 97 % of control | [9] 101 % of control | [10] 103 % of control

Oc1ccccc1N=Cc1c(O)ccc2ccccc12
inactive: dose: 100.0 mg/kg/injection, schedule: Q01DX001 (ip), vehicle: other 96 % of control | dose: 200.0 mg/kg/injection, schedule: Q01DX001 (ip), vehicle: other 98 % of control | dose: 400.0 mg/kg/injection, schedule: Q01DX001 (ip), vehicle: other 101 % of control

O=C(Nc1cccc(O)c1)OCCCl
inactive: dose: 100.0 mg/kg/injection, schedule: Q01DX001 (ip), vehicle: saline + alcohol 105 % of control | dose: 200.0 mg/kg/injection, schedule: Q01DX001 (ip), vehicle: saline + alcohol 102 % of control | dose: 400.0 mg/kg/injection, schedule: Q01DX001 (ip), vehicle: saline + alcohol 92 % of control

C=CC(=O)NCNC(C)C (tested in a mixture with another compound)
inactive: dose: 12.5 mg/kg/injection, schedule: Q01DX009 (ip), vehicle: Klucel (hydroxypropylcellulose) (HPC) 97 % of control | dose: 12.5 mg/kg/injection, schedule: Q01DX009 (ip), vehicle: saline 100 % of control and 93 % of control | dose: 25.0 mg/kg/injection, schedule: Q01DX009 (ip), vehicle: Klucel (hydroxypropylcellulose) (HPC) 97 % of control | dose: 25.0 mg/kg/injection, schedule: Q01DX009 (ip), vehicle: saline 95 % of control | dose: 50.0 mg/kg/injection, schedule: Q01DX009 (ip), vehicle: Klucel (hydroxypropylcellulose) (HPC) 90 % of control | dose: 50.0 mg/kg/injection, schedule: Q01DX009 (ip), vehicle: saline 100 % of control

NC(=O)c1ccc[n+](CCF)c1
inactive: dose: 100.0 mg/kg/injection, schedule: Q01DX001 (ip), vehicle: saline 98 % of control | dose: 200.0 mg/kg/injection, schedule: Q01DX001 (ip), vehicle: saline 98 % of control | dose: 400.0 mg/kg/injection, schedule: Q01DX001 (ip), vehicle: saline 104 % of control

CC1CN1C(=O)c1cc(C(=O)N2CC2C)cc(C(=O)N2CC2C)c1 (stereo not drawn)
inactive: dose: 15.0 mg/kg/injection, schedule: Q01DX001 (ip), vehicle: saline 102 % of control | dose: 15.0 mg/kg/injection, schedule: Q04DX003 (ip), vehicle: saline 98 % of control | dose: 30.0 mg/kg/injection, schedule: Q01DX001 (ip), vehicle: saline 105 % of control | dose: 30.0 mg/kg/injection, schedule: Q04DX003 (ip), vehicle: saline 98 % of control | dose: 60.0 mg/kg/injection, schedule: Q01DX001 (ip), vehicle: saline 102 % of control | dose: 60.0 mg/kg/injection, schedule: Q04DX003 (ip), vehicle: saline 102 % of control

CN(CC(=O)O)C(=N)N
inactive: [11] 92 % of control | [12] 94 % of control | dose: 250.0 mg/kg/injection, schedule: Q01DX Z (ip), vehicle: saline 94 % of control | [13] 97 % of control | dose: 500.0 mg/kg/injection, schedule: Q01DX Z (ip), vehicle: saline 104 % of control | dose: 1000.0 mg/kg/injection, schedule: Q01DX Z (ip), vehicle: saline 107 % of control | dose: 1500.0 mg/kg/injection, schedule: Q#A X Z (ip), vehicle: water 117 % of control | dose: 2500.0 mg/kg/injection, schedule: Q#A X Z (ip), vehicle: water 95 % of control

O=C(O)C1C(c2ccccc2)C2(c3ccccc3)C(=O)C1(c1ccccc1)C(c1ccccc1)=C2c1ccccc1 (stereo not drawn)
inactive: dose: 25.0 mg/kg/injection, schedule: Q01DX001 (ip), vehicle: saline with Tween-80 98 % of control | dose: 50.0 mg/kg/injection, schedule: Q01DX001 (ip), vehicle: saline with Tween-80 88 % of control | [5] 91 % of control | [6] 90 % of control | [7] 90 % of control

O=C1C=C(N2CCCC2)CC1
inactive: [14] 101 % of control | dose: 150.0 mg/kg/injection, schedule: Q01DX001 (ip), vehicle: saline 104 % of control

CC[N+]1(C2CCCCC2)CCCCC1
inactive: dose: 5.0 mg/kg/injection, schedule: Q01DX001 (ip), vehicle: saline 101 % of control | dose: 10.0 mg/kg/injection, schedule: Q01DX001 (ip), vehicle: saline 103 % of control | dose: 20.0 mg/kg/injection, schedule: Q01DX001 (ip), vehicle: saline 100 % of control | dose: 40.0 mg/kg/injection, schedule: Q01DX001 (ip), vehicle: saline 91 % of control | [14] 96 % of control
